Assay results: patent US12052991B2, “Substituted pyridinyloxybenzenes and salts thereof and use thereof as herbicidal agents” (Bayer Aktiengesellschaft, priority 2018, dated 2024)

Tests used:
Assay type in all cases: in vivo
[1] = tested on: Echinochloa crus-galli (ECHCG); assay: Herbicidal post-emergence action (Table B1); conditions: rated visually after about 3 weeks, 100% = plants have died, 0% = like control plants
Summary of the method: (§1)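 Post-emergence spray, one-leaf stage (2–3 wk after sowing), sandy loam, greenhouse. WP/EC in water + 0.5% additive, 600 L/ha, 1280 or 320 g/ha. Visual % activity vs untreated after ~3 wk (0% = like control, 100% = plants dead).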

[2] = tested on: Lolium rigidum (LOLRI); assay: Herbicidal post-emergence action (Table B2); conditions: rated visually after about 3 weeks, 100% = plants have died, 0% = like control plants
Summary of the method: as §1

[3] = tested on: Poa annua (POAAN); assay: Herbicidal post-emergence action (Table B3); conditions: rated visually after about 3 weeks, 100% = plants have died, 0% = like control plants
Summary of the method: as §1

[4] = tested on: Setaria viridis (SETVI); assay: Herbicidal post-emergence action (Table B4); conditions: rated visually after about 3 weeks, 100% = plants have died, 0% = like control plants
Summary of the method: as §1

[5] = tested on: Abutilon theophrasti (ABUTH); assay: Herbicidal post-emergence action (Table B5); conditions: rated visually after about 3 weeks, 100% = plants have died, 0% = like control plants
Summary of the method: as §1

[6] = tested on: Amaranthus retroflexus (AMARE); assay: Herbicidal post-emergence action (Table B6); conditions: visual rating about 3 weeks after treatment, 100% = plants have died, 0% = like control plants
Summary of the method: as §1

[7] = tested on: Stellaria media (STEME); assay: Herbicidal post-emergence action (Table B8); conditions: visual rating about 3 weeks after treatment, 100% = plants have died, 0% = like control plants
Summary of the method: as §1

[8] = tested on: Echinochloa crus-galli (ECHCG); assay: Herbicidal pre-emergence action, test C (Table C1); conditions: visual scoring after about 3 weeks, 100% = plants have died, 0% = like control plants
Summary of the method: (§2)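 Greenhouse pre-emergence test: compound formulations (WP or EC) are applied at 1280 or 320 g/ha to the soil surface over sown weed seeds, with 0.5% additive in 600 L/ha water. After about 3 weeks, percent activity is assessed visually, 100% indicating dead plants.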

[9] = tested on: Lolium rigidum (LOLRI); assay: Herbicidal pre-emergence action, test C (Table C2); conditions: visual scoring after about 3 weeks, 100% = plants have died, 0% = like control plants
Summary of the method: as §2

[10] = tested on: Poa annua (POAAN); assay: Herbicidal pre-emergence action, test C (Table C3); conditions: visual scoring after about 3 weeks, 100% = plants have died, 0% = like control plants
Summary of the method: as §2

[11] = tested on: Setaria viridis (SETVI); assay: Herbicidal pre-emergence action, test C (Table C4); conditions: visual scoring after about 3 weeks, 100% = plants have died, 0% = like control plants
Summary of the method: as §2

[12] = tested on: Abutilon theophrasti (ABUTH); assay: Herbicidal pre-emergence action, test C (Table C5); conditions: visual scoring after about 3 weeks, 100% = plants have died, 0% = like control plants
Summary of the method: as §2

[13] = tested on: Amaranthus retroflexus (AMARE); assay: Herbicidal pre-emergence action, test C (Table C6); conditions: visual scoring after about 3 weeks, 100% = plants have died, 0% = like control plants
Summary of the method: as §2

[14] = tested on: Stellaria media (STEME); assay: Herbicidal pre-emergence action, test C (Table C8); conditions: visual scoring after about 3 weeks, 100% = plants have died, 0% = like control plants
Summary of the method: as §2

[15] = tested on: harmful plants ABUTH, AMARE, ECHCG, LOLRI, MATIN, POAAN, SETVI, STEME, ALOMY, DIGSA, KCHSC and VERPE; assay: Herbicidal post-emergence action, summary of Tables B1-B12; conditions: application rate of 1280 or 320 g of active ingredient per hectare; summary in words
Summary of the method: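 Activity scored by eye roughly 3 weeks post-treatment against untreated plants, from 0% (no effect) to 100% (plants dead). Application rates were 1280 or 320 g/ha, as aqueous WP/EC spray plus 0.5% additive at 600 L/ha, onto one-leaf-stage weeds grown 2–3 weeks in sandy loam.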

[16] = tested on: harmful plants ABUTH, AMARE, ECHCG, LOLRI, MATIN, POAAN, SETVI, STEME, ALOMY, DIGSA, KCHSC and VERPE; assay: Herbicidal pre-emergence action (test C), summary of Tables C1-C12; conditions: application rate of 1280 or 320 g of active ingredient per hectare; summary in words
Summary of the method: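 Visual % damage versus untreated plants (0% = like control, 100% = died) was scored after about 3 weeks in the greenhouse. Before emergence, seeds sown in sandy loam got a soil-surface spray of compound as WP or EC plus 0.5% additive, using 600 L/ha water at rates of 1280 or 320 g/ha.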

Row | Structure (SMILES) | Post-emergence action against Echinochloa crus-galli (ECHCG) ([1]; 320 g/ha) [%] | Post-emergence action against Echinochloa crus-galli (ECHCG) ([1]; 1280 g/ha) [%] | Post-emergence action against Lolium rigidum (LOLRI) ([2]; 320 g/ha) [%] | Post-emergence action against Lolium rigidum (LOLRI) ([2]; 1280 g/ha) [%] | Post-emergence action against Poa annua (POAAN) ([3]; 320 g/ha) [%] | Post-emergence action against Poa annua (POAAN) ([3]; 1280 g/ha) [%] | Post-emergence action against Abutilon theophrasti (ABUTH) ([5]; 320 g/ha) [%] | Post-emergence action against Abutilon theophrasti (ABUTH) ([5]; 1280 g/ha) [%] | Post-emergence action against Amaranthus retroflexus (AMARE) ([6]; dosage 320 g/ha) [%] | Post-emergence action against Amaranthus retroflexus (AMARE) ([6]; dosage 1280 g/ha) [%] | Post-emergence action against Stellaria media (STEME) ([7]; dosage 320 g/ha) [%] | Post-emergence action against Stellaria media (STEME) ([7]; dosage 1280 g/ha) [%] | Pre-emergence action against Echinochloa crus-galli (ECHCG) ([8]; dosage 320 g/ha) [%] | Pre-emergence action against Echinochloa crus-galli (ECHCG) ([8]; dosage 1280 g/ha) [%] | Pre-emergence action against Lolium rigidum (LOLRI) ([9]; dosage 1280 g/ha) [%] | Pre-emergence action against Poa annua (POAAN) ([10]; dosage 320 g/ha) [%] | Pre-emergence action against Poa annua (POAAN) ([10]; dosage 1280 g/ha) [%] | Pre-emergence action against Setaria viridis (SETVI) ([11]; dosage 320 g/ha) [%] | Pre-emergence action against Setaria viridis (SETVI) ([11]; dosage 1280 g/ha) [%] | Pre-emergence action against Abutilon theophrasti (ABUTH) ([12]; dosage 320 g/ha) [%] | further results
1 | Fc1cccc(Oc2ccc(Cl)cn2)c1-c1cc(C(F)F)no1 [Example 1-17] | 100 | 100 | 100 | 100 | 100 | 100 | 100 | 100 | 100 | 100 | 100 | 100 | 90 | 100 | 100 | 100 | 100 | 100 | 100 | 100 | Post-emergence action against Setaria viridis (SETVI) ([4]; 320 g/ha): 100%; Post-emergence action against Setaria viridis (SETVI) ([4]; 1280 g/ha): 100%; Pre-emergence action against Lolium rigidum (LOLRI) ([9]; dosage 320 g/ha): 100%; Pre-emergence action against Abutilon theophrasti (ABUTH) ([12]; dosage 1280 g/ha): 100%; Pre-emergence action against Amaranthus retroflexus (AMARE) ([13]; dosage 320 g/ha): 100%; Pre-emergence action against Amaranthus retroflexus (AMARE) ([13]; dosage 1280 g/ha): 100%; Pre-emergence action against Stellaria media (STEME) ([14]; dosage 320 g/ha): 100%; Pre-emergence action against Stellaria media (STEME) ([14]; dosage 1280 g/ha): 100%; herbicidal activity against the harmful plants of Tables B1-B12 in post-emergence treatment [15]: very good herbicidal activity; herbicidal activity against the harmful plants of Tables C1-C12 in pre-emergence treatment [16]: very good herbicidal activity
2 | Cc1cccc(Oc2ccc(Cl)cn2)c1-c1cc(C(F)F)no1 [Example 1-18, 5-[2-[(5-Chloro-2-pyridyl)oxy]-6-methylphenyl]-3-(difluoromethyl)isoxazole] | 100 | 100 | 90 | 100 | 100 | 100 | 100 | 100 | 100 | 100 | 100 | 100 | 90 | 100 | 90 | 90 | 100 | 100 | 100 | 100 | Post-emergence action against Setaria viridis (SETVI) ([4]; 320 g/ha): 100%; Post-emergence action against Setaria viridis (SETVI) ([4]; 1280 g/ha): 100%; Pre-emergence action against Abutilon theophrasti (ABUTH) ([12]; dosage 1280 g/ha): 100%; Pre-emergence action against Amaranthus retroflexus (AMARE) ([13]; dosage 320 g/ha): 100%; Pre-emergence action against Amaranthus retroflexus (AMARE) ([13]; dosage 1280 g/ha): 100%; Pre-emergence action against Stellaria media (STEME) ([14]; dosage 320 g/ha): 100%; Pre-emergence action against Stellaria media (STEME) ([14]; dosage 1280 g/ha): 100%; herbicidal activity against the harmful plants of Tables B1-B12 in post-emergence treatment [15]: very good herbicidal activity; herbicidal activity against the harmful plants of Tables C1-C12 in pre-emergence treatment [16]: very good herbicidal activity
3 | Cc1cccc(Oc2ncc(Cl)cc2F)c1-c1cc(C(F)F)no1 [Example 1-20] | 100 | 100 | 90 | 90 | 100 | 100 | 100 | 100 | 100 | 100 | 100 | 100 | 90 | 90 | 90 | 90 | 90 | 100 | 100 | 90 | Pre-emergence action against Abutilon theophrasti (ABUTH) ([12]; dosage 1280 g/ha): 100%; Pre-emergence action against Amaranthus retroflexus (AMARE) ([13]; dosage 320 g/ha): 100%; Pre-emergence action against Amaranthus retroflexus (AMARE) ([13]; dosage 1280 g/ha): 100%; Pre-emergence action against Stellaria media (STEME) ([14]; dosage 320 g/ha): 100%; Pre-emergence action against Stellaria media (STEME) ([14]; dosage 1280 g/ha): 100%; herbicidal activity against the harmful plants of Tables B1-B12 in post-emergence treatment [15]: very good herbicidal activity; herbicidal activity against the harmful plants of Tables C1-C12 in pre-emergence treatment [16]: very good herbicidal activity
